Laboratory results taken from patent publication US20140093457A1, “Compositions, methods and kits for remineralization and inhibition of dental caries in teeth” (President and Fellows of Harvard College, priority 2010, published 2014).
Read-outs that look alike come from different tables or passages of the source.

Tests used:
[1] = hydrogen peroxide 38%
Experimental: The efficacy of removal of the probe by the solution was determined by criteria such as extent of fluorescence remaining on a tooth after rinse, or fluorescence extracted from hydroxyapatite into a rinse solution.

[2] = Removal of OsteoSense 750 from hydroxyapatite, spectrophotometry at 750 nm; details: hydrogen peroxide 30%, phosphoric acid 40%
Experimental: The tubes were vortexed, and the mixture was allowed to settle to obtain a supernatant. Each supernatant was collected and analyzed for probe content using a spectrophotomer.
The HA sample was washed with PBS and a spectrophotometric scan of the wash solution was performed.

Compound: OO [hydrogen peroxide]
- fluorescence of OsteoSense 750 bound to caries lesion after application with a syringe [1]: eliminated fluorescence
- fluorescence of OsteoSense 750 bound to the tooth after rinse ([1]; ten minutes after application): substantially eliminated
- fluorescence of OsteoSense 750 bound to the tooth after rinse ([1]; three minutes after application): substantially reduced
- spectrometric signal at 750 nm in supernatant (release of OsteoSense 750 from HA) [2]: no signal at 750 nm
